The target in test [1] is T1, Sentrin-specific protease 6 (Homo sapiens, UniProt Q9GZR1).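 Further: Luminescence-based dose-response confirmatory assay of SENP6 inhibition, following up an ultra-high-throughput screen.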
T1 sequence (Q9GZR1 whole entry): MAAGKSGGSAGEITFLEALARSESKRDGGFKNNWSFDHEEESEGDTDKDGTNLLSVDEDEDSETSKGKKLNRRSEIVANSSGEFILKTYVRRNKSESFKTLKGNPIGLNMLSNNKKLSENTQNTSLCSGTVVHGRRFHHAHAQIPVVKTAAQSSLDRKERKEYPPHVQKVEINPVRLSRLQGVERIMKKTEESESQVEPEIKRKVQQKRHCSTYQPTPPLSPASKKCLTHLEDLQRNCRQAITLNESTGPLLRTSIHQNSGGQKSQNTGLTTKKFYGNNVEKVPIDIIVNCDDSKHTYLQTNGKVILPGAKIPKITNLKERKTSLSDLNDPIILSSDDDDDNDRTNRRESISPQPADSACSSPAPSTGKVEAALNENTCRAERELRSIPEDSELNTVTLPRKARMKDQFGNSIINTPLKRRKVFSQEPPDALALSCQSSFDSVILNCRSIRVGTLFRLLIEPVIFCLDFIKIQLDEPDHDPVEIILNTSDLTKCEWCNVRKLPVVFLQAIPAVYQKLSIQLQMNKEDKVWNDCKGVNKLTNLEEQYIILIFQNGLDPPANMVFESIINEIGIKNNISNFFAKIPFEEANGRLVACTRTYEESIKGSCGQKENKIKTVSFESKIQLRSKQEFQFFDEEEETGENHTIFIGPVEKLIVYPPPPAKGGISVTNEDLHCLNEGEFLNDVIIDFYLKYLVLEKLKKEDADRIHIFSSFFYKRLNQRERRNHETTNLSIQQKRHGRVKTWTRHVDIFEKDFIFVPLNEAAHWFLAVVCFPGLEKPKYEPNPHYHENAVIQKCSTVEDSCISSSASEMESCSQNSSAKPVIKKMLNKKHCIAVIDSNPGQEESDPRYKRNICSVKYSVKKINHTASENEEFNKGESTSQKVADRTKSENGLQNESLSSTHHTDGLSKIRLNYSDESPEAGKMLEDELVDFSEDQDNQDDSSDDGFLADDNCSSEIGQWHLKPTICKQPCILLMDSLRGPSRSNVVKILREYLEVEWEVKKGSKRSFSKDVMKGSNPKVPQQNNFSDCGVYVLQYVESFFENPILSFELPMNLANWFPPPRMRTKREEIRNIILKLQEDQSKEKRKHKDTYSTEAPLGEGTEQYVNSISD
In kind it is functional.

For test [2], the system named is Streptococcus sp. 'group A'. Put plainly: Streptococcus pyogenes SK(-)GAS viability under kanamycin – luminescence, BacTiterGlo, confirmation, counter-screen for streptokinase expression inhibitor project, dose response (AID 1900). The format is functional, organism-based. In general terms: Counterscreens check selectivity or assay interference.
A further test addresses T2, Caspase-3 (Homo sapiens, UniProt P42574).
T2 sequence (P42574 whole entry): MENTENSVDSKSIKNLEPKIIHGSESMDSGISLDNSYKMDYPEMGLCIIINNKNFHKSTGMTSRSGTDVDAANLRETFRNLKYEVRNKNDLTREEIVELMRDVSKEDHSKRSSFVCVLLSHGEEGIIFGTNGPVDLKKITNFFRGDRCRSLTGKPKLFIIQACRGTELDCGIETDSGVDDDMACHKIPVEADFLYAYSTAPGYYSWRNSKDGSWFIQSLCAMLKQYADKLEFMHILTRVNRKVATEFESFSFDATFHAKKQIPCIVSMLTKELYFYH
In kind it is functional.

The target in test [3] is T3, Oxysterols receptor LXR-beta (Homo sapiens, UniProt P55055).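 Further: agonist activity at LXR measured by a cell-based luminescence readout across a dose range, run as a counterscreen for daf-12 agonists; HEK293 cells with Gal4-LXR fusion and GAL4-driven luciferase reporter; potency for activation of Gal4-LXR reporter so compounds are agonists.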
T3 sequence (P55055 whole entry): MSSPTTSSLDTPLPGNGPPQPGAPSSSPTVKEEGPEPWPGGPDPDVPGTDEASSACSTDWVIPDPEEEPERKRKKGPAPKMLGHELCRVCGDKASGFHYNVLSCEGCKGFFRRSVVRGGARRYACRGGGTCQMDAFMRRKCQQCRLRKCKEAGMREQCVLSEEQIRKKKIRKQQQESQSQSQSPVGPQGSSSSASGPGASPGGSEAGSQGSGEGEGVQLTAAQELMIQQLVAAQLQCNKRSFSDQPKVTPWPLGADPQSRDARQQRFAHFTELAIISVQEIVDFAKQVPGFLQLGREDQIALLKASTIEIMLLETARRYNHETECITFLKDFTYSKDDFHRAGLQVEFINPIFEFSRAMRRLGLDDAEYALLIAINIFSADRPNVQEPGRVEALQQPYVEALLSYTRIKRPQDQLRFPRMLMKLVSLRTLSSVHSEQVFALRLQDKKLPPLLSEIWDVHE
In kind it is functional, cell-based.

The test system of another test is Streptococcus. Kind of test: GAS UMAA2166 growth inhibition – luminescence, BacTiterGlo, counter-screen for streptokinase expression inhibitor project, dose response (AID 1915).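 Further: potency for reduction of bacterial viability or growth.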 The format is functional, organism-based.
The target in test [4] is T4, Sentrin-specific protease 8 (Homo sapiens, UniProt Q96LD8).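 Further: luminescence read-out of SENP8 inhibition, dose-response confirmation following an ultra-high-throughput screen.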
T4 sequence (Q96LD8 whole entry): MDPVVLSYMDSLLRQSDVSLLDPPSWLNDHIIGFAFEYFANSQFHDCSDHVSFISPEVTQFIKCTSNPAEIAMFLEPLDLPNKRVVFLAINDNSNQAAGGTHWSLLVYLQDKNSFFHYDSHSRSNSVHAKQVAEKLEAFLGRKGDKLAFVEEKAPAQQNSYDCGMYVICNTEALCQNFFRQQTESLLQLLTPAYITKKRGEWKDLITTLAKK
The format is functional.

The target in test [5] is T5, Sentrin-specific protease 7 (Homo sapiens, UniProt Q9BQF6).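 Further: Luminescence-based dose-response confirmation of ultra-high-throughput screening hits, measuring inhibition of SENP7.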
T5 sequence (Q9BQF6 whole entry): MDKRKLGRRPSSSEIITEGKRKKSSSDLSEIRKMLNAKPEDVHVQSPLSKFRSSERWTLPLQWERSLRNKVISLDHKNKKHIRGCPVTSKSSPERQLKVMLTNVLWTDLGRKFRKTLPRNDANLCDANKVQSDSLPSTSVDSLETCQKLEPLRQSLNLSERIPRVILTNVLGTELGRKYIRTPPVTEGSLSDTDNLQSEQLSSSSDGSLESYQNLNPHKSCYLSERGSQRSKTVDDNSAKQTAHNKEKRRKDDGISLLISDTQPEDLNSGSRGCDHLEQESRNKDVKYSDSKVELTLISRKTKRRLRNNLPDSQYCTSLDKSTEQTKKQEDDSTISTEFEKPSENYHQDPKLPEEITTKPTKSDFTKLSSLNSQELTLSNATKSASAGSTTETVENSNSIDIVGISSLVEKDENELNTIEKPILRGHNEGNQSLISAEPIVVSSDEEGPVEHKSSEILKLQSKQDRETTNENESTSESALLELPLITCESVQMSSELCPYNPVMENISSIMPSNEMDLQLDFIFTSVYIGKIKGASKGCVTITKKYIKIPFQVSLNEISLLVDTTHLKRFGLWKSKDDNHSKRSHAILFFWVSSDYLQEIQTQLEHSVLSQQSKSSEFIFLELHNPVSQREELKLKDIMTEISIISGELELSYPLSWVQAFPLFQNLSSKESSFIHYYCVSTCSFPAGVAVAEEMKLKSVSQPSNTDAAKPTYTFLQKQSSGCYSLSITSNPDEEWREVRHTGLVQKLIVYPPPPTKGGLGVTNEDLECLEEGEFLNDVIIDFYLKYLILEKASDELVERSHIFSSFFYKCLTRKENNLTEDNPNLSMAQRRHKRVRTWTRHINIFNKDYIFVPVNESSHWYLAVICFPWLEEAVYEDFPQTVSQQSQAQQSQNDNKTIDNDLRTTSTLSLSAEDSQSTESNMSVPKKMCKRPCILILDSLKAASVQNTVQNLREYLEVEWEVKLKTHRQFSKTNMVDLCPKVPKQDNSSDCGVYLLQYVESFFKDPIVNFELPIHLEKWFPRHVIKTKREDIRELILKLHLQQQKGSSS
In kind it is functional.

The next test concerns the target T6, Streptokinase A (Streptococcus pyogenes serotype M1, UniProt P10520).
T6 sequence (P10520 whole entry): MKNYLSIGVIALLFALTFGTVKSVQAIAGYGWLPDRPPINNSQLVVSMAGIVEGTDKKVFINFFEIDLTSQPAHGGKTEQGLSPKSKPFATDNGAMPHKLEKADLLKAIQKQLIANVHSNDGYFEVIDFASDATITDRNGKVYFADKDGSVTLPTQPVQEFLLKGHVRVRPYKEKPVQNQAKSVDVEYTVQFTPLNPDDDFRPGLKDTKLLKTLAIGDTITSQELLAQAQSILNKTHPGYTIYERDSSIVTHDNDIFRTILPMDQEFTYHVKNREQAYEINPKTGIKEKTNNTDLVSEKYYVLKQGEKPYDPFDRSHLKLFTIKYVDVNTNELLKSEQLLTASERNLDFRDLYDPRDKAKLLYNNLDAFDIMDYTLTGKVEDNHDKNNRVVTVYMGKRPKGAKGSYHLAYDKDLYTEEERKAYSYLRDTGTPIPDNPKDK
Kind of test: viability-normalized secreted streptokinase activity reduction – plasminogen activation absorbance, OD405, dose response (AID 1914).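 Further: secreted streptokinase activity via plasminogen activation per viability signal from cell pellet.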 The format is functional, Streptococcus pyogenes M1 GAS.

In test [6] the target is COUP transcription factor 2 (Homo sapiens, UniProt P24468). Kind of test: Luminescence-based cell-based high throughput dose response assay to identify inhibitors of COUP-TFII (NR2F2). In kind it is functional.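 Further: HEK293 cells transiently cotransfected with COUP-TFII expression vector and reporter; luciferase reporter luminescence driven by COUP-TFII from the pX2-168 reporter plasmid.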
Chain of COUP transcription factor 2 (P24468 whole entry): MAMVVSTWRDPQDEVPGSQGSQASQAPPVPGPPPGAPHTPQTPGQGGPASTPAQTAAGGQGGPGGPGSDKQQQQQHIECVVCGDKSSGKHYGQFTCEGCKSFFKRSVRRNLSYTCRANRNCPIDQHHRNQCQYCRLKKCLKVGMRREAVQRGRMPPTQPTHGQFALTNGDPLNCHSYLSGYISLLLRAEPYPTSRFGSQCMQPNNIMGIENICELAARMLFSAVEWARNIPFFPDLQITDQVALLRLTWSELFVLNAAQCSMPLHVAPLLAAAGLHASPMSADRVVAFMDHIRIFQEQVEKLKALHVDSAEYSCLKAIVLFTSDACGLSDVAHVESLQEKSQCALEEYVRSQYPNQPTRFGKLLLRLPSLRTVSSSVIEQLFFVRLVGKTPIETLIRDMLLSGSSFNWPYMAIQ
The nature of test [7]: loss of viability in HepG2 cells – cell-based, CellTiter-Glo, cherry-picked, cytotoxicity control for Shn3 inhibitor project, dose response (AID 624134). In kind it is functional. A general note: ATP-based viability assays read luminescence as a measure of living cells.
Test [8] in a line: non-specific 3'UTR reporter inhibition in Clone20-Shn3RL – cell-based, Renilla luciferase, cherry-picked, counter-screen for Shn3 inhibitor project, dose response (AID 624133). The format is functional.
The nature of test [9]: reduction of Shn3 3'UTR-driven luciferase in osteoblasts – cell-based, Clone20 osteoblasts, firefly luciferase, cherry-picked, dose response (AID 624132).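 Further: firefly luciferase luminescence from reporter carrying the Shn3 3'UTR in osteoblasts.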 In kind it is functional.
A short description of test [10]: HEK293 Cytotoxicity Assay Measured in Cell-Based System Using Plate Reader - 7071-01_Inhibitor_Dose_CherryPick_Activity_Set2. In kind it is functional.
Another test has as its system HEK293. Kind of test: viability loss in HEK293T cells – cell-based, ATP luminescence, cherry-pick samples, cytotoxicity control, dose response (AID 687005).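 Further: cells exposed to compound for 48 hours.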 The format is functional. The settings on record: Homo sapiens.
Another test concerns HeLa. Kind of test: viability loss in HeLa cells – cell-based, ATP luminescence, cherry-pick samples, cytotoxicity control, dose response (AID 687004). In kind it is functional. The settings on record: Homo sapiens.
Test [11] in a line: OVCAR8 cell viability loss – plate reader, dry powder samples, PAX8 project, dose response (AID 743197). The settings on record: OVCAR-8. In kind it is functional, cell-based.
Test [12] in a line: IGROV1 cell killing – plate reader, dry powder samples, PAX8 inhibitor project, dose response (AID 743043). The settings on record: IGROV-1. The format is functional, cell-based.
The target in another test is Paired box protein Pax-8 (Homo sapiens, UniProt Q06710). Kind of test: PAX8 transcriptional activity inhibition in RMG-I – RMG-I cells, luciferase, cherry-pick, dose response (AID 687027).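 Further: luciferase reporter driven by Pax8 target thyroperoxidase promoter measured by SteadyGlo luminescence.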 The format is functional, cell-based.
Chain of Paired box protein Pax-8 (Q06710 whole entry): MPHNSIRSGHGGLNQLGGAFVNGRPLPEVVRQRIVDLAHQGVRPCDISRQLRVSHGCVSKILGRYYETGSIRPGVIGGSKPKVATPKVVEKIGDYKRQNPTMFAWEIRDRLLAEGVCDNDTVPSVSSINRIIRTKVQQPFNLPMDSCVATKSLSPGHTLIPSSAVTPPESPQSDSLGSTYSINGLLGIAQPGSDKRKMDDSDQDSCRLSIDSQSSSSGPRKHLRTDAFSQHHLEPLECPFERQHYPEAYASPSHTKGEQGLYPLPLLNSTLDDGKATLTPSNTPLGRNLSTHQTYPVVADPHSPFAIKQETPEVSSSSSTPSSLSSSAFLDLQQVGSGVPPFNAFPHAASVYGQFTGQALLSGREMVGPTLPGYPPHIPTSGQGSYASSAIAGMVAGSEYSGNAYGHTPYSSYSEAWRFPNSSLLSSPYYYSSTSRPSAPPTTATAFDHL
Test [13] is described as follows: OVCAR-3 cell viability loss – plate reader, dry powder samples, PAX8 inhibitor project, dose response (AID 743044). In kind it is functional, cell-based.
Test [14] in a line: general cell-killing toxicity readout – plate reader, dry powder samples, cytotoxicity control for PAX8 inhibitor project, dose response (AID 743021). In kind it is functional, cell-based.

Activity calls are given as the source filed them. Some results are limits rather than exact numbers.

Our source for the IC50, EC50 and AC50 values is ChEMBL document CHEMBL1201862, “PubChem BioAssay data set” (2004).

One may read the IC50 as the concentration at which inhibition is half-maximal. As a reminder, the EC50 is the concentration needed to bring the measured effect to its halfway point. The term AC50 denotes the midpoint of the concentration-response curve, whichever way the signal moves.

As to `O=c1c2cc(-c3ccccc3)sc2nc2n1CCC2`, the IC50 in test [1] is 20.8 µM (active); on Caspase-3, 5.94 µM (active); in [4], 10.9 µM (active); in [5], 6.17 µM (active). In addition, the EC50 is 11.3 µM (active) in [2], > 67.5 µM (inactive) in test [3], > 150 µM (not active) in the test on Streptococcus and > 150 µM (not active) on Streptokinase A.

Take `OC[C@@H]1CN(Cc2ccc(-c3ccccc3)cc2)C[C@H](n2cnc3c(NCc4ccc(F)cc4)ncnc32)O1`: the IC50 in [6] was 8.22 µM (active). Besides, the AC50 in test [7] was 64.5 µM (active); in test [8], 4.44 µM (active); in test [9] it was 1.58 µM (active).

With `C[C@@H]1CN([C@H](C)CO)S(=O)(=O)c2ccc(C#Cc3ccc(F)cc3)cc2O[C@H]1CN(C)C(=O)NC1CCCC1`, the values for the AC50 (in [10]; with HEK293; with HeLa) were 4.91 µM (active), 4.91 µM (active) and 34.7 µM (active), respectively.

`COc1cccc(S(=O)(=O)Nc2ccc3c(c2)[C@@H]2C[C@@H](CC(=O)NCc4cccc(F)c4)O[C@H](CO)[C@@H]2O3)c1`: the AC50 (in test [10]; in the test with HEK293) was 27.7 µM (active) throughout.

With `C[C@@H]1CCCCO[C@H](CN(C)Cc2ccc(C(F)(F)F)cc2)[C@@H](C)CN([C@@H](C)CO)C(=O)c2cc(NC(=O)c3ccccc3)ccc2O1`, the AC50 is 21.5 µM (active) in test [11]; 26.2 µM (active) in [12]; 6.57 µM (active) on Paired box protein Pax-8; 10.8 µM (active) in test [13]; 52.2 µM (active) in test [14].
